Laboratory results: paper PMC9124818 (Pharmacology Research & Perspectives, 2022)

Columns and labels:
CYP2D6 = CYP2D6 (Homo sapiens, UniProt P10635); details: CYP2D6‐dependent dextromethorphan O‐demethylation; ref 35 von Moltke et al.; cited from earlier work
CYP1A2 = target: T1, CYP1A2 (Homo sapiens, UniProt P05177); details: ref 35 von Moltke et al.; cited from earlier work
T1 sequence (P05177 1-516): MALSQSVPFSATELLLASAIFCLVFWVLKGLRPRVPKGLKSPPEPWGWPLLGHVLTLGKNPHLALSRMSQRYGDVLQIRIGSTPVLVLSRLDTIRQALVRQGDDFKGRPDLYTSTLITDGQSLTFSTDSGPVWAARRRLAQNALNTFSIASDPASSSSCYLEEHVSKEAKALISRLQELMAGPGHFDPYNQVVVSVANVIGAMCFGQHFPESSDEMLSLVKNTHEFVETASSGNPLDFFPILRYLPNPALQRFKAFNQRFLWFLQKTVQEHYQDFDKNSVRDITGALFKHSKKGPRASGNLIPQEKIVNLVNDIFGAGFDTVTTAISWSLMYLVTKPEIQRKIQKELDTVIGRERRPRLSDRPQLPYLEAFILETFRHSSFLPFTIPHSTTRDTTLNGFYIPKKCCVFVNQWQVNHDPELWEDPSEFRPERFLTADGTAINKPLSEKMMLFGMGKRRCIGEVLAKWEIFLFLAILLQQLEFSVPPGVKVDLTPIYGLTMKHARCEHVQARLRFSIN

CYP3A = details: ref 35 von Moltke et al.; cited from earlier work
CYP2C9 = CYP2C9 (Homo sapiens, UniProt P11712); details: ref 35 von Moltke et al.; cited from earlier work
CYP2C9, sequence (P11712 whole entry): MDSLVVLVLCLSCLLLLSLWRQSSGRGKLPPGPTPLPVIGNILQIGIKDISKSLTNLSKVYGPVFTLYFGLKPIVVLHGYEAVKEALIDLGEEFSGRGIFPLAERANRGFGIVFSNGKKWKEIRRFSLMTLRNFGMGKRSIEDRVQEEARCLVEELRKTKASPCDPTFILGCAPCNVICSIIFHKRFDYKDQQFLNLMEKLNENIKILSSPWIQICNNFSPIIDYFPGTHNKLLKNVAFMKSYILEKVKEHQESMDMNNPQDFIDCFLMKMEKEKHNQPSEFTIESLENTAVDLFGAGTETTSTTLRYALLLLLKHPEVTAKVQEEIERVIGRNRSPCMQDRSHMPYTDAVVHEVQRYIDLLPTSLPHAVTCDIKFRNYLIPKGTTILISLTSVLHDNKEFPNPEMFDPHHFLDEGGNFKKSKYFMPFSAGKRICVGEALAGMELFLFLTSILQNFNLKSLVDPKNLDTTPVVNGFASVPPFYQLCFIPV

CYP1A2 mRNA = assay: CYP450 induction in cultured human hepatocytes, mRNA by qRT-PCR; format: cell-based; details: human, hepatocytes, 3 days, 50 μM
Experimental: Each PCR was performed in triplicate.

CYP2D6, sequence (P10635 whole entry): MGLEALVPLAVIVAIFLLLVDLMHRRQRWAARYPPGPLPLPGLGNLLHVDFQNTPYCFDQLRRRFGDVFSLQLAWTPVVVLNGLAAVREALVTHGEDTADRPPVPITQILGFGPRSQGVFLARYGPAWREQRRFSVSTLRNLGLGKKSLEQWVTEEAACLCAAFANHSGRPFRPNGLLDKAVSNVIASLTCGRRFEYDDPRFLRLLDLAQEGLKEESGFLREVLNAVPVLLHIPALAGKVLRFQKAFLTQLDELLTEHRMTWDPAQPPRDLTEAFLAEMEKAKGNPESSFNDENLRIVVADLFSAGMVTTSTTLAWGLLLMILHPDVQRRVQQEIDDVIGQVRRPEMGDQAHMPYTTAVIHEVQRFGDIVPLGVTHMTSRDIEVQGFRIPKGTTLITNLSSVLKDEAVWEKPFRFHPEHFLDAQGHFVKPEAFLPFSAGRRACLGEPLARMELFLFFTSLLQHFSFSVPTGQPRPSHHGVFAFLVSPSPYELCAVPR

Row | Compound | IC50 (CYP2D6) [µM] | inhibitor potential (CYP1A2) | inhibitor potential (CYP3A) | inhibitor potential (CYP2C9) | increase in CYP1A2 mRNA levels (CYP1A2 mRNA)
1 | CCN[C@@H](C)Cc1cccc(C(F)(F)F)c1 [D‐FFA] | 15.1 | weak or negligible inhibitor potential | weak or negligible inhibitor potential | weak or negligible inhibitor potential | –
2 | CCN[C@H](C)Cc1cccc(C(F)(F)F)c1 [L‐FFA] | 15.1 | weak or negligible inhibitor potential | weak or negligible inhibitor potential | weak or negligible inhibitor potential | –
3 | COc1ccc2[nH]c([S+]([O-])Cc3ncc(C)c(OC)c3C)nc2c1 (stereo not drawn) [Omeprazole, omeprazole, reference compound] | – | – | – | – | 32.7-52.5 fold
